# In patent US4585773A, “Isoindolinyl-alkyl-piperazines” (Bristol-Myers Company, priority 1984, dated 1986):
# Where a name gives a salt, the structure may show the parent alone. Read-outs that look alike come from different tables or passages of the source.
# Key:
# α1 = assay: in vitro α1 binding, [3H]WB-4101 (Table IV); conditions: [3H]WB-4101, brain tissue, 50 mM Hepes.KOH, pH 7.4; read-out: α1 Binding IC50
# Description: (§1) In this Example the compounds of Examples I-XI were tested in vitro for α1 and α2 binding. The compound of Example I was tested as its monochloride 2-propanolate hydrate, i.e. as C22 […] CLN4 O4 S .HCl.0.2(CH3)2 CHOH 0.15H2 O. In the testing specific brain tissues were prepared as sources of binding sites. Aliquots of the washed members are incubated with a low concentration of […]. After incubation at suitable temperature, the reaction mixture is treated to separate the membrane-bound radioligand Radioactivity is measured. Linear regression analysis of the probit value for the percent of binding occurring in the presence of varying concentrations of the compound of interest plotted against the concentration of the compound yields concentrations which inhibit 50% specific binding, the IC50. The assay buffer is 50 mM Hepes.KOH, pH 7.4. The ligand is [^3 H]WB-4101 from New England Nuclear for α1 and [^3 H]Clonidine from New England Nuclear for α2. The results are considered against phentolamine methanesulfonate (Reference) which is considered a good α-binder.
# [1] = test system: α blocking activity (phenylephrine); assay: in vivo α blocking activity, phenylephrine (PE) as α-agonist (Table III); parameters: species or system rat; ED50: unit not given beside the values; conditions: for in vivo α blocking activity (in words): conclusion from Table III
# Description: (§2) In this example the compounds of Examples I (modified), II, III, V, VI, VII, VIII, IX and XI were tested in rats for in vivo α blocking activity according to methodology described at page 312 of Deitchman, et al., Journal of Pharmacological Methods, 3, 311-321 (1980). In this test phenylephrine (PE below) or norepinephrine (NE below) was administered as an α-agonist to the rats before and after dosing with the test drug and the average interpolated dose or PE/NE effecting a 50 mm Hg increase in mean arterial blood pressure was determined. Table III below records the results. In such Table, ED50 stands for such average interpolated dose and Average Dose Shift stands for the average ratio of ED50 after drug administration to ED50 before drug administration. The compound of Example I was tested as its monochloride 2-propanolate hydrate, i.e. as C22 H27 ClN4 O4 S.HCl 0.2(CH3)2 CHOH.0.15H2 O in Tests 1-5 and as the 3/4 mole hydrochloride, i.e. C22 H27 ClN 4 O4 S.3/4HCL in Tests 2a and 3a. The route was intravenous except in the case of the runs of Test Nos. 2a, 3, 3a, 26-29 the route was oral.
# α2 = assay: in vitro α2 binding, [3H]Clonidine (Table IV); conditions: for IC50: [3H]Clonidine, brain tissue, 50 mM Hepes.KOH, pH 7.4, read-out: α2 Binding IC50
# Description: as §1
# [2] = test system: Spontaneously Hypertensive rat; assay: antihypertensive activity, Spontaneously Hypertensive Rat (Table II); type: in vivo; conditions: for antihypertensive effect (in words): conclusion from Table II (SHR, and DOCA for Examples I-IV)
# Description: Spontaneously Hypertensive Rat Male rats weighing 300-400 g, previously conditioned to the procedure, are prewarmed in a heating chamber (30° C.) for 10-20 min. and subsequently restrained in a wire holder at that temperature. Systolic blood pressure and heart rate are measured by the tailcuff technique using a pneumatic pulse transducer and a biotachometer before, and 2, 4, and 24 hours after oral administration of vehicle (0.25% Methocel in water) or test compounds suspended in vehicle at a dose volume equivalent to 5 ml/kg. Blood pressure and heart rate data are reported as changes from zero-hour measurements with vehicle control groups run periodically to confirm that the vehicle has no effect. Testing was carried out on the compounds of Examples I-XII for antihypertensive activity. In the case of all the compounds testing was carried out on the Spontaneously Hypertensive rat as described hereinbefore. In the case of the compounds of Examples I-IV testing was also carried out on the DOCA-salt Hypertensive Rat. The compound of Example I was tested as its monochloride 2-propanolate hydrate, i.e. as C22 […] ClN4 O4 S.HCl.0.2(CH3)2 CHOH.0.15H2 O in Tests 1-5; and as the 3/4 mole hydrochloride, i.e. C22 […] ClN4 O4 S: 3/4 HCl in Tests 3a, 4a, 5a-5d. Test results are set forth in Table II below wherein SHR stands for Spontaneously Hypertensive rat, DOCA stands for DOCA-salt Hypertensive Rat, ΔBP stands for the change in systolic blood pressure in mm Hg, ΔHR stands for the change in mean heart rate in beats per minute and the times set forth are the times after dosing. A peak change in ΔBP of more than 20 is considered as indicating activity.
# [3] = test system: DOCA-salt Hypertensive Rat; assay: antihypertensive activity, DOCA-salt Hypertensive Rat (Table II); type: in vivo; conditions: DOCA
# Description: DOCA-salt Hypertensive Rat
# Male rats initially weighing 80-100 g, are made hypertensive by surgically implanting two 50 mg pellets of deoxycorticosterone acetate (DOCA) under the skin of the abdomen of each rat and providing 1% saline ad libitum. After three weeks, the 1% saline is replaced with distilled water. One week later, animals are anesthetized with methoxyflurane and a catheter advanced into the aorta via the left common corotid artery to record mean arterial blood pressure (MABP) and heart rate. The heparin-filled catheter is passed beneath the skin and exteriorized behind the head. Two days later, MABP and heart rate are determined before and four hours after oral administration of vehicle (0.25% Methocel in 0.9% saline) or test compound suspended in vehicle at a dose volume equivalent to 5 ml/kg.
# Testing was carried out on the compounds of Examples I-XII for antihypertensive activity. In the case of all the compounds testing was carried out on the Spontaneously Hypertensive rat as described hereinbefore. In the case of the compounds of Examples I-IV testing was also carried out on the DOCA-salt Hypertensive Rat. The compound of Example I was tested as its monochloride 2-propanolate hydrate, i.e. as C22 H27 ClN4 O4 S.HCl.0.2(CH3)2 CHOH.0.15H2 O in Tests 1-5; and as the 3/4 mole hydrochloride, i.e. C22 H27 ClN4 O4 S: 3/4 HCl in Tests 3a, 4a, 5a-5d. Test results are set forth in Table II below wherein SHR stands for Spontaneously Hypertensive rat, DOCA stands for DOCA-salt Hypertensive Rat, ΔBP stands for the change in systolic blood pressure in mm Hg, ΔHR stands for the change in mean heart rate in beats per minute and the times set forth are the times after dosing. A peak change in ΔBP of more than 20 is considered as indicating activity.
# [4] = conscious rat diuretic screen of Lipschitz (Table I); type: in vivo, rat (female Sprague Dawley; male Okamoto-Aoki); conditions: female Sprague Dawley rats; for response vs control in vivo at 30 mg/kg / response vs control in vivo at 3 mg/kg: Rattus norvegicus, po
# Description: With respect to diuretic utility there can be mentioned the conscious rat diuretic screen of Lipschitz, et al. (J. Pharmacol. Exp. Therap. 79, 97-110 (1943)). In this test, dose response assays of diuretic, natruiretic and kaliuretic activity are determined by oral administration of the test substance. The compounds synthesized in Examples I-XI were tested for diuretic […]. The compound of Example I was tested as its monohydrochloride 2-propanolate hydrate, i.e. as C22 […] ClN4 O4 S.HCl. 0.2(CH3)2 CHOH.0.15H2 O. Testing was carried out by the diuretic screen of Lipschitz, et al. described previously. In Table I below Volume Ratio is the ratio of total volume excreted for the test comuound compared to the total volume excreted for the control, Na^+ Ratio is the Na^+ excreted for the test compound compared to the Na^+ excreted for the control, K^+ Ratio is the K^+ excreted for the test compound compared to the K^+ excreted for the control. Female Sprague Dawley rats were used in Test Nos. 1, 2, 6, 7, 11-29. Male Okamoto-Aoki rats were used in Test Nos. 3-5 and 8-10 and testing for antihypertensive activity was carried out simultaneously on the Test Nos. 3-5 rats. In some instances, compounds were retested at the same dose level.
# [5] = test system: α blocking activity (norepinephrine); assay: in vivo α blocking activity, norepinephrine (NE) as α-agonist (Table III); parameters: species or system rat; conditions: ED50 after/before drug
# Description: as §2
# [6] = 30 mg/kg oral, read-out: K+ Ratio
# [7] = 30 mg/kg oral, read-out: Na+ Ratio
# [8] = 30 mg/kg oral, read-out: Volume Ratio
# [9] = 3 mg/kg oral, read-out: K+ Ratio
# [10] = 3 mg/kg oral, read-out: Na+ Ratio
# [11] = 3 mg/kg oral, read-out: Volume Ratio
IC50 (α1),α2 binding activity (in words) (α2),IC50 (α2),Compound,in vivo α blocking activity (in words) [1],ED50 ([1]; iv),"ΔBP 2 hours ([2]; SHR, 30 mg/kg oral)","ΔBP 4 hours ([2]; SHR, 30 mg/kg oral)","ΔHR 2 hours ([2]; SHR, 30 mg/kg oral)","ΔHR 4 hours ([2]; SHR, 30 mg/kg oral)",antihypertensive effect (in words) [2],ΔBP 4 hours ([3]; 30 mg/kg oral),ΔHR 4 hours ([3]; 30 mg/kg oral),Urinary Na/K (Test Compound) ([4]; 30 mg/kg oral),"response vs control in vivo at 30 mg/kg [4, 6]","response vs control in vivo at 30 mg/kg [4, 7]","response vs control in vivo at 30 mg/kg [4, 8]",Urinary Na/K (Test Compound) ([4]; 3 mg/kg oral),"response vs control in vivo at 3 mg/kg [4, 9]","response vs control in vivo at 3 mg/kg [4, 10]","response vs control in vivo at 3 mg/kg [4, 11]",other results
7.62 nM,α2 binding activity,694 nM,"NS(=O)(=O)c1cc2c(cc1Cl)CN(CCCN1CCN(c3cccc(Cl)c3)CC1)C2=O [Example II, 6-Chloro-2-[3-[4-(3-chlorophenyl)-1-piperazinyl]propyl]-2,3-dihydro-3-oxo-1H-isoindole-5-sulfonamide hydrochloride hemihydrate]",active as in vivo α blockers,34.0,-23 ± 4 mm Hg,-18 ± 7 mm Hg,-18 ± 10 beats per minute,-4 ± 16 beats per minute,good antihypertensive effect without significantly affecting heart rate,-33 ± 5 mm Hg,22 ± 17 beats per minute,3.41,129%,143%,117%,,,,,"Average Dose Shift ([1]; ED50 after/before drug, PE, dose 10, intravenous): > 200"
4.16 nM,,1430 nM,"Cc1ccccc1N1CCN(CCCN2Cc3cc(Cl)c(S(N)(=O)=O)cc3C2=O)CC1 [Example IV, 6-Chloro-2,3-dihydro-2-[3-[4-(2-methylphenyl)-1-piperazinyl]propyl]-3-oxo-1H-isoindole-5-sulfonamide]",,,-48 ± 19 mm Hg,-53 ± 7 mm Hg,-36 ± 5 beats per minute,-22 ± 22 beats per minute,good antihypertensive effect without significantly affecting heart rate,-79 ± 4 mm Hg,18 ± 13 beats per minute,,117%,121%,,3.49,97%,123%,104%,ΔBP 4 hours ([3]; 0.3 mg/kg oral): -8 ± 3 mm Hg; ΔHR 4 hours ([3]; 0.3 mg/kg oral): 13 ± 21 beats per minute; ΔBP 4 hours ([3]; 3 mg/kg oral): -31 ± 7 mm Hg; ΔHR 4 hours ([3]; 3 mg/kg oral): 22 ± 9 beats per minute
16 nM,α2 binding activity,666 nM,"Cl.NS(=O)(=O)c1cc2c(cc1Cl)CN(CCCN1CCN(c3ccccc3)CC1)C2=O.O [Example X, 6-chloro-2,3-dihydro-3-oxo-2-[3-(4-phenyl-1-piperazinyl)propyl]-1H-isoindole-5-sulfonamide hydrochloride hydrate]",active as in vivo α blockers,45.0,,,,,good antihypertensive effect without significantly affecting heart rate,,,2.83,157%,163%,153%,3.19,121%,138%,124%,"Average Dose Shift ([1]; iv): 13 ± 2; peak change at 2 hours in ΔBP ([2]; SHR, 30 mg/kg oral): -34 mm Hg"
,,,"COc1ccccc1N1CCN(CCCCN2Cc3cc(Cl)c(S(N)(=O)=O)cc3C2=O)CC1 [Example XI, 6-Chloro-2,3-dihydro-2-[4-[4-(2-methoxyphenyl)-1-piperazinyl]butyl]-3-oxo-1H-isoindole-5-sulfonamide]",active as in vivo α blockers,375,-94 ± 10 mm Hg,-60 ± 21 mm Hg,-2 ± 8 beats per minute,-22 ± 14 beats per minute,good antihypertensive effect without significantly affecting heart rate,,,2.62,137%,117%,94%,3.09,111%,113%,108%,"Average Dose Shift ([5]; dose 0.3, intravenous): 5 ± 0.5; Average Dose Shift ([5]; dose 1.0, intravenous): 27 ± 28; Average Dose Shift ([5]; dose 3, intravenous): 63 ± 19"
